Results on eleven compounds are retold here after patent US7414068B2, “Benzopyran derivatives substituted with secondary amines including tetrazole, method for the preparation thereof and pharmaceutical compositions containing them” (Dongbu Hannong Chemical Co., Ltd., priority 2002, dated 2008).

The nature of series [1]: Acute oral toxicity test in rats. As to conditions: SD, rat, in vivo, single oral dose, suspended in 0.5% methyl cellulose, read-out: lethal dose (LD50) for oral administration. Here is the method:
In this test, six-week old SPF SD rats were used with two rats assigned to each group. Each group was consisted of two rats. The compounds prepared in example 1, 7, 11, 17, 22, 24, 26, 28, 30, 32, 34, 42, 52, 54, 55, 56, 57, 59, 60, 61, 70, 75, 77, 79, 81, 83, 85, and 89 were suspended in 0.5% methyl cellulose, respectively. […] Also, hematological test and biochemical analysis were accomplished. After sacrificing the animals, autopsy was performed for macroscopic observations of the organs and tissues. As a result, there was no significant changes in clinical symptoms, body weight and mortalities. Also in hematology, serum chemistry parameters, macroscopic observation and drug-related changes were not observed.

The subject of another series is cortical neuron cells. In words: Protective effect on iron-induced neuronal cell injury (LDH release). Particulars: FeSO4 50 μM; for protective effect on neuron cell: Inhibition (%, 30 μM compound addition): LDH reduction vs control; for IC50: LDH. In kind it is cell-based. Here is the method:
From the brains of 17˜18 day-old embryos, cortical neuron cells were isolated and then, cultured at 37° C. for 7˜9 days in a 5% CO2 incubator. The said cortical cell cultures were washed twice with MEM (Minimum essential medium) to reduce the serum level to 0.2%. […] Then, the compound of the said concentration was pre-treated for 30 min, respectively. For the experiment, test compound was dissolved in DMSO and diluted in a medium. At this time, the final concentration of DMSO was not allowed to exceed 0.1%. For control group, only vehicle was applied.
After the said pre-treatment, FeSO4 was added to the medium for a final concentration to be 50 μM. The medium was cultured in CO2 incubator for 24 hours. During the incubation, lactate dehydrogenase (LDH) was released by iron. The serum level of lactate dehydrogenase released into the medium was measured to assess necrosis of neuronal cell by the oxidative toxicity of iron. The protective effect on neuron cells of the test compounds was evaluated by calculating the LDH reduction rate of treatment-group compared with that of the control group.

A further series relates to isolated rat aorta. Kind of series: Vasodilating effect on blood vessel excised from rats (methoxamine-constricted aorta). As to conditions: isolated rat aorta constricted with methoxamine (3 μM); read-out: Concentration for inhibition of constriction induced by methoxamine in rat arota (IC50). From the text: Rats (350˜450 g, obtained from the Experimental Animal Team of the Korea Research Institute of Chemical Technology) were knocked to be unconscious by hitting the occipital region, sacrificed by cervical dislocation, and underwent thoracotomy. After being quickly removed, the thoracic aorta was deprived of the adipose tissue and cut into aortic rings of 3 mm width. The aorta was lightly rubbed with cotton club soaked in a modified Krebs Henseleit buffer (Physiological salt solution) to remove the inner epithelial layer therefrom. While being hung in an organ bath containing a physiological buffer, the vascular smooth muscle was allowed to equilibrate under a resting tension of 2 g and then, stand for 1 hour at 37° C. for stabilization, supplying a carbogen consisting of 95% O2˜5% CO2.
Thereafter, the vascular smooth muscle was constricted with 10^−5M phenylephrine and washed several times with physiological saline solution. The said procedure was repeated again to ensure the stable reactivity of vascular smooth muscle to repetitive constriction/relaxation.
Thereafter, 3×10^−6 M methoxamine was applied to induce an intensive constriction in the vascular smooth muscle. When the vasoconstriction induced by the methoxamine was reached and maintained to a maximum, test compounds and control material was cumulatively added to the organ bath in concentration of 1, 3, 10 and 30 μM, respectively, to examine the vasodilating effect. Cromakalim, BMS-180448 (the compound of formula 4) and BMS-191095 (the compound of formula 5), known to be the first generation KATP opener with potent vasodilating effect were used as control materials.
The change rate of constriction by the addition of the drugs compared to the maximal constriction induced by methoxamine was calculated to plot a concentration-relaxation response curve. Through a least linear regression analysis, IC50 that the drug concentration at which the vascular tissue is relaxed to 50% extent of the maximal constriction, was obtained for each drug.

Regarding `COC(OC)[C@@]1(C)Oc2ccc([N+](=O)[O-])cc2[C@@H](N(Cc2ccccc2)Cc2nnn(C)n2)[C@@H]1O` [Example 7, (2S,3S,4R)-6-nitro-4-[N-benzyl-N-(2-methyl-2H-tetrazol-5-ylmethyl)amino]-3-hydroxy-2-methyl-2-dimethoxymethyl-3,4-dihydro-2H-1-benzopyran], the LD50 in series [1] is greater than 2000 mg/kg. The “protective effect on neuron cell: Inhibition (%, 30 μM compound addition)” value in the series with cortical neuron cells (24 hours) worked out at 59%. Further, the IC50 is 34.1 µM with cortical neuron cells (Cortical neurone, 24 h) and 5.59 µM with isolated rat aorta.
On the same counts, the results for `COC(OC)[C@@]1(C)Oc2ccc(N)cc2[C@@H](N(Cc2nnn(C)n2)c2cccc(Cl)c2)[C@@H]1O` [Example 22, (2S,3S,4R)-6-amino-4-[N-(3-chlorophenyl)-N-(2-methyl-2H-tetrazol-5-ylmethyl)amino]-3-hydroxy-2-methyl-2-dimethoxymethyl-3,4-dihydro-2H-1-benzopyran] are greater than 2000 mg/kg, 97%, 5.9 µM and greater than 30 µM.
`COC(OC)[C@@]1(C)Oc2ccc([N+](=O)[O-])cc2[C@H](N(Cc2nnn(C)n2)c2cccc(Cl)c2)[C@H]1O` [Example 25, (2S,3R,4S)-6-nitro-4-[N-(3-chlorophenyl)-N-(2-methyl-2H-tetrazol-5-ylmethyl)amino]-3-hydroxy-2-methyl-2-dimethoxymethyl-3,4-dihydro-2H-1-benzopyran]: the “protective effect on neuron cell: Inhibition (%, 30 μM compound addition)” value in the series with cortical neuron cells (24 hours) came out at 83%. Further, the IC50 with isolated rat aorta is 27.4 µM.
As for `COC(OC)[C@@]1(C)Oc2ccc(N)cc2[C@H](N(Cc2nnn(C)n2)c2cccc(Cl)c2)[C@H]1O` [Example 26, (2S,3R,4S)-6-amino-4-[N-(3-chlorophenyl)-N-(2-methyl-2H-tetrazol-5-ylmethyl)amino]-3-hydroxy-2-methyl-2-dimethoxymethyl-3,4-dihydro-2H-1-benzopyran], the LD50 in series [1] was greater than 2000 mg/kg. In addition, the “protective effect on neuron cell: Inhibition (%, 30 μM compound addition)” value in the series with cortical neuron cells (24 hours) is recorded as 97%. The IC50 in the series on cortical neuron cells (Cortical neurone, 24 h) was 2.2 µM; with isolated rat aorta, 24.6 µM.
Take `COC(OC)[C@@]1(C)Oc2ccc([N+](=O)[O-])cc2[C@H](N(Cc2nnn(C)n2)c2ccc(OC(F)(F)F)cc2)[C@H]1O` [Example 31, (2S,3R,4S)-6-nitro-4-[N-(4-trifluoromethoxyphenyl)-N-(2-methyl-2H-tetrazol-5-ylmethyl)amino]-3-hydroxy-2-methyl-2-dimethoxymethyl-3,4-dihydro-2H-1-benzopyran]: in the series on cortical neuron cells (24 hours), the “protective effect on neuron cell: Inhibition (%, 30 μM compound addition)” value came to 86%. The IC50 with cortical neuron cells (Cortical neurone, 24 h) was less than 2 µM; with cortical neuron cells (24 hours), 1.8 µM; in the series with isolated rat aorta it was greater than 30 µM.
As for `COC(OC)[C@@]1(C)Oc2ccc(N)cc2[C@H](N(Cc2nnn(C)n2)c2ccc(C(F)(F)F)cc2)[C@H]1O` [Example 34, (2S,3R,4S)-6-amino-4-[N-(4-trifluoromethylphenyl)-N-(2-methyl-2H-tetrazol-5-ylmethyl)amino]-3-hydroxy-2-methyl-2-dimethoxymethyl-3,4-dihydro-2H-1-benzopyran], the LD50 in series [1] was greater than 2000 mg/kg. For the same compound, the “protective effect on neuron cell: Inhibition (%, 30 μM compound addition)” value in the series on cortical neuron cells (24 hours) was 111%. The IC50 was 1.5 µM in the series on cortical neuron cells (Cortical neurone, 24 h) and greater than 30 µM in the series with isolated rat aorta.
`COC(OC)[C@@]1(C)Oc2ccc(N)cc2[C@@H](N(Cc2nnn(C)n2)c2ccc(C(F)(F)F)cc2)[C@@H]1O` [Example 75, (2S,3S,4R)-6-amino-4-[N-(4-trifluoromethylphenyl)-N-(2-methyl-2H-tetrazol-5-ylmethyl)amino]-3-hydroxy-2-methyl-2-dimethoxymethyl-3,4-dihydro-2H-1-benzopyran]: the LD50 in series [1] was greater than 2000 mg/kg. Also, the “protective effect on neuron cell: Inhibition (%, 30 μM compound addition)” value in the series on cortical neuron cells (24 hours) was 125%. Also, the IC50 with cortical neuron cells (Cortical neurone, 24 h) was less than 2 µM; with cortical neuron cells (24 hours), 1.8 µM; with isolated rat aorta, greater than 30 µM.
For `COC(OC)[C@]1(C)Oc2ccc(N)cc2[C@@H](N(Cc2nnn(C)n2)c2ccc(C(F)(F)F)cc2)[C@@H]1O` [Example 77, (2R,3S,4R)-6-amino-4-[N-(4-trifluoromethylphenyl)-N-(2-methyl-2H-tetrazol-5-ylmethyl)amino]-3-hydroxy-2-methyl-2-dimethoxymethyl-3,4-dihydro-2H-1-benzopyran] the same measures were greater than 2000 mg/kg, 111%, less than 2 µM, 1.9 µM and greater than 30 µM.
Regarding `COC(OC)[C@]1(C)Oc2ccc(N)cc2[C@H](N(Cc2nnn(C)n2)c2ccc(OC(F)(F)F)cc2)[C@H]1O` [Example 83, (2R,3R,4S)-6-amino-4-[N-(4-trifluoromethoxyphenyl)-N-(2-methyl-2H-tetrazol-5-ylmethyl)amino]-3-hydroxy-2-methyl-2-dimethoxymethyl-3,4-dihydro-2H-1-benzopyran], the LD50 in series [1] is greater than 2000 mg/kg. The “protective effect on neuron cell: Inhibition (%, 30 μM compound addition)” value in the series with cortical neuron cells (24 hours) stood at 80%. For the same compound, the IC50 is 3.7 µM in the series with cortical neuron cells (Cortical neurone, 24 h) and greater than 30 µM with isolated rat aorta.
In the case of `COC(OC)[C@]1(C)Oc2ccc(N)cc2[C@@H](N(Cc2nnn(C)n2)c2ccc(OC(F)(F)F)cc2)[C@@H]1O` [Example 85, (2R,3S,4R)-6-amino-4-[N-(4-trifluoromethoxyphenyl)-N-(2-methyl-2H-tetrazol-5ylmethyl)amino]-3-hydroxy-2-methyl-2-dimethoxymethyl-3,4-dihydro-2H-1-benzopyran], the LD50 in series [1] is greater than 2000 mg/kg. Also, in the series on cortical neuron cells (24 hours), the “protective effect on neuron cell: Inhibition (%, 30 μM compound addition)” value stood at 119%. Also, the IC50 in the series on cortical neuron cells (Cortical neurone, 24 h) is less than 2 µM; in the series with cortical neuron cells (24 hours) it was 1.8 µM; in the series on isolated rat aorta it was greater than 30 µM.
For `COC(OC)[C@@]1(C)Oc2ccc([N+](=O)[O-])c(C)c2[C@@H](N(Cc2nnn(C)n2)c2ccc(Cl)cc2)[C@@H]1O` [Example 98, (2S,3S,4R)-6-nitro-5-methyl-4-[N-(4-chlorophenyl)-N-(2-methyl-2H-tetrazol-5-ylmethyl)amino]-3-hydroxy-2-methyl-2-dimethoxymethyl-3,4-dihydro-2H-1-benzopyran], the “protective effect on neuron cell: Inhibition (%, 30 μM compound addition)” value in the series on cortical neuron cells (24 hours) turned out to be 85%. In addition, the IC50 in the series on cortical neuron cells (Cortical neurone, 24 h) came to 10.5 µM; in the series with isolated rat aorta, 7.34 µM.
